{
  "source": "PubChem BioAssay AID624144",
  "about": "(National Center for Advancing Translational Sciences (NCATS), 2012)",
  "tested_on": "human plasma stability, LC-MS/MS, 48 h",
  "test": "qHTS Assay to Find Inhibitors of T. brucei phosphofructokinase: Human Plasma Stability Profiling",
  "conditions": "at 2 µM; active compounds read low",
  "data": [
    {"smiles": "O=C(Cc1ccc(Cl)c(Cl)c1)Nc1ccc(S(=O)(=O)Nc2ccon2)cc1", "values": [
      {"measurement": "percent remaining in plasma (higher = more stable)", "result": 100, "unit": "%"}
    ]}
  ]
}
